Experimental data reported in the NIST ThermoML archive (doi:10.1016/j.jct.2010.04.003).

Test: xn = mol fraction of the nth substance listed
Details: 101 kPa, Liquid, Buoyancy - hydrostatic balance with magnetic suspension - one sinker

CN(C)P(=O)(N(C)C)N(C)C [tris(dimethylamino)phosphine oxide] + O
mass density [kg/m3]
Details | 288.15 K | 293.15 K | 298.15 K | 303.15 K | 308.15 K
x1 = 0.0023 | 1001.1 | 1000.05 | 998.77 | 997.25 | 995.51
x1 = 0.00503 | 1003.51 | 1002.29 | 1000.85 | 999.27 | 997.34
x1 = 0.0101 | 1007.82 | 1006.2 | 1004.52 | 1002.76 | 1000.79
x1 = 0.0297 | 1024.31 | 1021.59 | 1018.84 | 1016.02 | 1013.39
x1 = 0.05 | 1036.43 | 1033.08 | 1029.72 | 1026.56 | 1023.13
x1 = 0.07 | 1043.92 | 1040.44 | 1036.96 | 1033.47 | 1029.7
x1 = 0.1 | 1050.24 | 1046.86 | 1042.73 | 1039 | 1034.91
x1 = 0.1496 | 1054.84 | 1050.62 | 1046.2 | 1041.95 | 1037.57
x1 = 0.1999 | 1054.7 | 1050.33 | 1045.83 | 1041.49 | 1037.05
x1 = 0.3008 | 1049.56 | 1045 | 1040.47 | 1036.04 | 1031.66
x1 = 0.3999 | 1044.61 | 1040.34 | 1035.76 | 1031.36 | 1026.94
x1 = 0.5002 | 1040.86 | 1036.54 | 1032.12 | 1027.81 | 1023.35
x1 = 0.6 | 1038.03 | 1033.74 | 1029.39 | 1025.15 | 1020.66
x1 = 0.6997 | 1035.45 | 1031.15 | 1026.79 | 1022.51 | 1018
x1 = 0.8004 | 1033.06 | 1028.72 | 1024.37 | 1020.03 | 1015.57
x1 = 0.8505 | 1031.95 | 1027.66 | 1023.31 | 1019.05 | 1014.64
x1 = 0.91 | 1030.54 | 1026.29 | 1021.95 | 1017.74 | 1013.41
x1 = 0.9499 | 1029.63 | 1025.4 | 1021.07 | 1016.88 | 1012.59
x1 = 0.9703 | 1029.16 | 1024.92 | 1020.61 | 1016.44 | 1012.14
x1 = 0.9849 | 1028.81 | 1024.6 | 1020.3 | 1016.12 | 1011.86
x1 = 0.9937 | 1028.61 | 1024.4 | 1020.1 | 1015.93 | 1011.68
x1 = 0.9967 | 1028.54 | 1024.33 | 1020.03 | 1015.86 | 1011.61
x1 = 1 | 1028.47 | 1024.26 | 1019.96 | 1015.79 | 1011.54
